Test results: patent US20240425464A1, “Substituted Monohydrazides as Potent Antifungal Agents” (University of Kentucky Research Foundation, priority 2023, published 2024)
In brackets after ≈: the same amount, converted by molar mass. Several values for one entry are separate records, joined by “and”; a condition that tells them apart may be missing. Equal values may be shown once. Read-outs that look alike come from different tables or passages of the source.

How the values were obtained:
Experiment in all cases: MIC determination by in vitro antifungal assay
[1] = tested on: Aspergillus terreus ATCC MYA-3633 (N); assay type: cell-based; conditions: strain N = A. terreus ATCC MYA-3633
Experimental: (§1) 10 mg/mL stock solutions of compounds 1a-9j were prepared in dimethyl sulfoxide (DMSO) and were stored at −20° C. in the dark. The antifungal agent amphotericin B (AmB) was purchased from VWR (Radnor PA, USA). AmB was dissolved in DMSO at a final concentration of 5 mg/mL and was stored at −20° C., protected from light. Candida albicans American Type Culture Collection (ATCC) 10231 (strain A), C. albicans ATCC 64124 (B), and C. albicans ATCC MYA-2876 (C) were obtained from Utah State University. C. albicans ATCC 90819 (D), C. albicans ATCC MYA-2310 (E), C. albicans ATCC MYA-1237 (F), C. albicans ATCC MYA-1003 (G), Candida glabrata ATCC 2001 (H), Candida krusei ATCC 6258 (I), Candida parapsilosis ATCC 22019 (J), Cryptococcus neoformans ATCC MYA-895 (M), Aspergillus terreus ATCC MYA-3633 (N), and Aspergillus flavus ATCC MYA-3631 (0) were obtained from the American Type Culture Collection (ATCC; Manassas, VA, USA). Aspergillus nidulans ATCC 38163 (P) was obtained from University of Kentucky. Clinically derived Aspergillus fumigatus NRRL 163 (Q), A. fumigatus NRRL 5109 (R), and A. fumigatus NRRL 6113 (S) were obtained from Northern Regional Research Laboratory (NRRL). Candida auris 384 (K), C. auris 390 (L), and fungal strains 381-400 (including 10 C. auris (AR Bank #381-390), 3 Candida duobushaemulonii (AR Bank #391, AR Bank #392, and AR Bank #394), 2 Candida haemulonii (AR Bank #393 and AR Bank #395), 1 Kodameae ohmeri (AR Bank #396), 1 C. krusei (AR Bank #397), 1 Candida lusitaniae (AR Bank #398), and 2 Saccharomyces cerevisiae strains (AR Bank #399 and AR Bank #400)) were part of a larger fungal library from the AR Bank maintained by the Centers for Disease Control and Prevention (CDC; Atlanta, GA, USA). Filamentous fungi and yeasts were cultivated at 35° C. in RPMI 1640 medium (with L-glutamine, without sodium bicarbonate, Sigma-Aldrich, St. Louis, MO) buffered to a pH of 7.0 with 0.165 M morpholinepropanesulfonic acid (MOPS) buffer (Sigma-Aldrich). For cytotoxicity assays, HepG2 and the mouse macrophage cell line J774A.1 were obtained from University of Kentucky. The human embryonic kidney cell line, HEK-293, was bought from the ATCC. Mammalian cells were grown in Dulbecco's Modified Eagle's Medium (DMEM) (from VWR) with 10% fetal bovine serum (FBS) (from VWR) and 1% Pen/Strep (from ATCC). Cell lines were cultured at 37° C. with 5% CO2 and passaged by trypsinization with 0.05% trypsin: 0.53 mM EDTA (from Sigma-Aldrich).
The MIC values of compounds 1a-9j against yeast cells (strains A-P and 381-400) were determined in 96-well plates as described in the CLSI documents M27-A3 and M38-A2 with minor modifications.^2 A single colony of freshly prepared yeast cells was used to inoculate 5 mL of yeast extract peptone dextrose (YPD) broth prior to incubation overnight with shaking at 200 rpm at 35° C. From the actively growing yeast culture, 100 µL were then transferred to 900 μL of RPMI 1640 medium and re-adjusted to achieve OD600 of 0.12 (˜1×10^6 CFU/mL). The cell suspension was further diluted to achieve 1:100 in RPMI 1640 medium. 100 μL of cells were added to the wells of a 96-well microtiter plates that contained 100 µL of the compound solution to obtain concentrations of 0.06-31.3 μg/mL of compounds 1a-9j or AmB prior to incubation for 48 h at 35° C.
Finally, the activity of these monohydrazides was explored against […] non-Candida strains: Cryptococcus neoformans ATCC MYA-895 (M), Aspergillus terreus ATCC MYA-3633 (N), Aspergillus flavus ATCC MYA-3631 (O), Aspergillus nidulans ATCC 38163 (P), Aspergillus fumigatus NRRL 163 (Q), A. fumigatus NRRL 5109 (R), and A. fumigatus NRRL 6113 (S) (Tables 1A and 1B). The double dilution method was used with concentrations ranging from 0.06 to 31.3 j·tg mL^−1 for monohydrazides 1a-9j, and the commercially available positive antifungal control amphotericin B (AmB).

[2] = tested on: C. albicans ATCC 90819 (D); assay type: cell-based, Candida albicans
Experimental: as §1
(§2) The MIC values of compounds 1a-9j against yeast cells (strains A-P and 381-400) were determined in 96-well plates as described in the CLSI documents M27-A3 and M38-A2 with minor modifications.^2 A single colony of freshly prepared yeast cells was used to inoculate 5 mL of yeast extract peptone dextrose (YPD) broth prior to incubation overnight with shaking at 200 rpm at 35° C. From the actively growing yeast culture, 100 µL were then transferred to 900 μL of RPMI 1640 medium and re-adjusted to achieve OD600 of 0.12 (˜1×10^6 CFU/mL). The cell suspension was further diluted to achieve 1:100 in RPMI 1640 medium. 100 μL of cells were added to the wells of a 96-well microtiter plates that contained 100 µL of the compound solution to obtain concentrations of 0.06-31.3 μg/mL of compounds 1a-9j or AmB prior to incubation for 48 h at 35° C. […]

[3] = tested on: C. albicans ATCC MYA-1003 (G); assay type: cell-based, Candida albicans; conditions: strain G = C. albicans ATCC MYA-1063(R) (footnote), MYA-1003 in text
Experimental: as §1, §2

[4] = tested on: C. albicans ATCC 64124 (B); assay type: cell-based, Candida albicans
Experimental: as §1, §2

[5] = tested on: C. albicans ATCC MYA-2876 (C); assay type: cell-based, Candida albicans; conditions: strain C = C. albicans ATCC MYA-2876(S)
Experimental: as §1, §2

[6] = tested on: C. albicans ATCC MYA-2310 (E); assay type: cell-based, Candida albicans; conditions: strain E = C. albicans ATCC MYA-2310
Experimental: as §1, §2

[7] = tested on: C. albicans ATCC MYA-1237 (F); assay type: cell-based, Candida albicans; conditions: strain F = C. albicans ATCC MYA-1237(R)
Experimental: as §1, §2

[8] = strain D = C. albicans ATCC 90819(R)
[9] = strain B = C. albicans ATCC 64124
[10] = Aspergillus terreus, read-out: MIC
[11] = Candida albicans, ATCC90819, strain D = C. albicans ATCC 90819(R), read-out: MIC
[12] = Candida albicans, read-out: MIC
[13] = Candida albicans, ATCC64124, strain B = C. albicans ATCC 64124, read-out: MIC

SMILES	MIC [1]	MIC [2, 8]	MIC [3]	MIC [4, 9]	MIC [5]	MIC [6]	MIC [7]	MIC [1, 10]	MIC [2, 11]	MIC [3, 12]	MIC [4, 13]	MIC [5, 12]	MIC [6, 12]	MIC [7, 12]
C[C@@H]1[C@H](O)[C@@H](C)/C=C/C=C/C=C/C=C/C=C/C=C/C=C/[C@H](O[C@@H]2O[C@H](C)[C@@H](O)[C@H](N)[C@@H]2O)C[C@@H]2O[C@](O)(C[C@@H](O)C[C@@H](O)[C@H](O)CC[C@@H](O)C[C@@H](O)CC(=O)O[C@H]1C)C[C@H](O)[C@H]2C(=O)O [AmB, amphotericin B, reference compound]	3.9 μg/mL^−1	0.98 μg/mL^−1	0.98 μg/mL^−1 and 1.95 μg/mL^−1	1.95 μg/mL^−1	1.95 μg/mL^−1	0.98 μg/mL^−1	1.95 μg/mL^−1	–	–	–	–	–	–	–
O=C(NNc1cccc(F)c1)c1ccc(F)cc1F [Compound 1a]	3.9 μg/mL^−1	7.8 μg/mL^−1	1.95 μg/mL^−1	1.95 μg/mL^−1	3.9 μg/mL^−1	3.9 μg/mL^−1	0.98 μg/mL^−1	–	–	–	–	–	–	–
O=C(NNc1cccc(Cl)c1)c1ccc(F)cc1F [Compound 1b]	–	–	–	–	–	–	–	7.8 µg/mL (≈ 27.6 µM)	15.6 µg/mL (≈ 55.2 µM)	3.9 µg/mL (≈ 13.8 µM)	7.8 µg/mL (≈ 27.6 µM)	7.8 µg/mL (≈ 27.6 µM)	7.8 µg/mL (≈ 27.6 µM)	3.9 µg/mL (≈ 13.8 µM)
COc1cccc(NNC(=O)c2ccc(F)cc2F)c1 [Compound 1c]	–	–	–	–	–	–	–	3.9 µg/mL (≈ 14 µM)	3.9 µg/mL (≈ 14 µM)	1.95 µg/mL (≈ 7.01 µM)	1.95 µg/mL (≈ 7.01 µM)	3.9 µg/mL (≈ 14 µM)	3.9 µg/mL (≈ 14 µM)	3.9 µg/mL (≈ 14 µM)
O=C(NNc1ccc(F)cc1)c1ccc(F)cc1F [Compound 1d]	–	–	–	–	–	–	–	3.9 µg/mL (≈ 14.6 µM)	1.95 µg/mL (≈ 7.32 µM)	1.95 µg/mL (≈ 7.32 µM)	7.8 µg/mL (≈ 29.3 µM)	7.8 µg/mL (≈ 29.3 µM)	3.9 µg/mL (≈ 14.6 µM)	1.95 µg/mL (≈ 7.32 µM)
O=C(NNc1ccc(Cl)cc1)c1ccc(F)cc1F [Compound 1e]	31.3 μg/mL^−1	3.9 μg/mL^−1	7.8 μg/mL^−1	15.6 μg/mL^−1	15.6 μg/mL^−1	7.8 μg/mL^−1	1.95 μg/mL^−1	–	–	–	–	–	–	–
COc1ccc(NNC(=O)c2ccc(F)cc2F)cc1 [Compound 1f]	–	–	–	–	–	–	–	31.3 µg/mL (≈ 112 µM)	1.95 µg/mL (≈ 7.01 µM)	1.95 µg/mL (≈ 7.01 µM)	1.95 µg/mL (≈ 7.01 µM)	1.95 µg/mL (≈ 7.01 µM)	1.95 µg/mL (≈ 7.01 µM)	1.95 µg/mL (≈ 7.01 µM)
O=C(NNc1ccc(F)cc1F)c1ccc(F)cc1F [Compound 1g]	–	–	–	–	–	–	–	31.3 µg/mL (≈ 110 µM)	3.9 µg/mL (≈ 13.7 µM)	0.98 µg/mL (≈ 3.45 µM)	1.95 µg/mL (≈ 6.86 µM)	3.9 µg/mL (≈ 13.7 µM)	> 31.3 µg/mL	1.95 µg/mL (≈ 6.86 µM)
O=C(NNc1cc(F)ccc1F)c1ccc(F)cc1F [Compound 1h]	–	–	–	–	–	–	–	> 31.3 µg/mL	31.3 µg/mL (≈ 110 µM)	31.3 µg/mL (≈ 110 µM)	15.6 µg/mL (≈ 54.9 µM)	31.3 µg/mL (≈ 110 µM)	31.3 µg/mL (≈ 110 µM)	31.3 µg/mL (≈ 110 µM)
O=C(NNc1cc(F)cc(F)c1)c1ccc(F)cc1F [Compound 1i]	–	–	–	–	–	–	–	> 31.3 µg/mL	15.6 µg/mL (≈ 54.9 µM)	15.6 µg/mL (≈ 54.9 µM)	15.6 µg/mL (≈ 54.9 µM)	15.6 µg/mL (≈ 54.9 µM)	15.6 µg/mL (≈ 54.9 µM)	7.8 µg/mL (≈ 27.4 µM)
O=C(NNc1cc(Cl)cc(Cl)c1)c1ccc(F)cc1F [Compound 1j]	–	–	–	–	–	–	–	> 31.3 µg/mL	> 31.3 µg/mL	7.8 µg/mL (≈ 24.6 µM)	> 31.3 µg/mL	> 31.3 µg/mL	> 31.3 µg/mL	15.6 µg/mL (≈ 49.2 µM)
O=C(NNc1cccc(F)c1)c1ccccn1 [Compound 2a]	1.95 μg/mL^−1	0.49 μg/mL^−1	0.98 μg/mL^−1	0.98 μg/mL^−1	0.98 μg/mL^−1	1.95 μg/mL^−1	0.98 μg/mL^−1	–	–	–	–	–	–	–
O=C(NNc1cccc(Cl)c1)c1ccccn1 [Compound 2b]	0.98 μg/mL^−1	0.49 μg/mL^−1	0.49 μg/mL^−1	0.98 μg/mL^−1	0.98 μg/mL^−1	0.98 μg/mL^−1	0.98 μg/mL^−1	–	–	–	–	–	–	–
COc1cccc(NNC(=O)c2ccccn2)c1 [Compound 2c]	3.9 μg/mL^−1	1.95 μg/mL^−1	0.98 μg/mL^−1	0.98 μg/mL^−1	0.98 μg/mL^−1	1.95 μg/mL^−1	1.95 μg/mL^−1	–	–	–	–	–	–	–
